pIC50: −log10 of the molar value. Active and inactive are the calls of the source. No cut-off for these calls is given here.
What was measured:
Pyruvate kinase PKM [1] = target: T1, Pyruvate kinase PKM (Homo sapiens, UniProt P14618); experiment: Binding affinity to human PKM1 in HEK-293T by measuring pulldown using streptavidin agarose resin preincubated for 18 hrs followed by streptavidin pulldown for 18 hrs by silver staining based immunoblotting analysis; format: cell-based; details: time 36.0 hrs
Target sequence in this assay (P14618 2-531 limits assumed): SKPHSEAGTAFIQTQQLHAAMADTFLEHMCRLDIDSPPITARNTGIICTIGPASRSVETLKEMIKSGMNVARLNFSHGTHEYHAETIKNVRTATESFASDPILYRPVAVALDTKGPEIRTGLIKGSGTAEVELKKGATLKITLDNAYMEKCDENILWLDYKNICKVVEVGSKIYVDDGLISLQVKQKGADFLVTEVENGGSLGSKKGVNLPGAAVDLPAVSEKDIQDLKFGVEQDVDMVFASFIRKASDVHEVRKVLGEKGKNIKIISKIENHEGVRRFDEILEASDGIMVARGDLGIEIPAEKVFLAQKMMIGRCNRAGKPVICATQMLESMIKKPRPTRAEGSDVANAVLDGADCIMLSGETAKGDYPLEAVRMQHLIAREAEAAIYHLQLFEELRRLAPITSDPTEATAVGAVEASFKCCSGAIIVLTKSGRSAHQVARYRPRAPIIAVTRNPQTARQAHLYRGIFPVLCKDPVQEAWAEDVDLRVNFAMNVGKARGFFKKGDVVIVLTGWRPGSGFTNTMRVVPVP

Pyruvate kinase PKM [2] = target: T1, Pyruvate kinase PKM; experiment: Binding affinity to human PKM2 in HEK-293T by measuring pulldown using streptavidin agarose resin preincubated for 18 hrs followed by streptavidin pulldown for 18 hrs by silver staining based immunoblotting analysis; format: cell-based; details: time 36.0 hrs
Target sequence in this assay (P14618 2-531 limits assumed): as above

Pyruvate kinase PKM [3] = target: T1, Pyruvate kinase PKM; experiment: Binding affinity to PKM2 in human PA-1 cells assessed as target engagement of protein at 10 uM silver staining based […] gel electrophoresis analysis; format: cell-based
Target sequence in this assay (P14618 2-531 limits assumed): as above

SK-OV-3 [4] = experiment: Antiproliferative activity against human SK-OV-3 cells assessed as reduction in cell viability incubated for 72 hrs by Cell-TiterGlo assay; format: functional, cell-based; details: SK-OV-3, 72 h
PA-1 [5] = experiment: Antiproliferative activity against human PA-1 cells assessed as reduction in cell viability incubated for 72 hrs by Cell-TiterGlo assay; format: functional, cell-based; details: PA-1, 72 h
A2780 = experiment: Antiproliferative activity against human A2780 cells assessed as reduction in cell viability incubated for 72 hrs by Cell-TiterGlo assay; format: functional, cell-based; details: A2780, 72 h
Pyruvate kinase PKM [6] = target: T1, Pyruvate kinase PKM; experiment: Inhibition of human PKM2 assessed as ATP production incubated for 10 mins by Celltiter-glo luminescent analysis
Target sequence in this assay (P14618 whole entry): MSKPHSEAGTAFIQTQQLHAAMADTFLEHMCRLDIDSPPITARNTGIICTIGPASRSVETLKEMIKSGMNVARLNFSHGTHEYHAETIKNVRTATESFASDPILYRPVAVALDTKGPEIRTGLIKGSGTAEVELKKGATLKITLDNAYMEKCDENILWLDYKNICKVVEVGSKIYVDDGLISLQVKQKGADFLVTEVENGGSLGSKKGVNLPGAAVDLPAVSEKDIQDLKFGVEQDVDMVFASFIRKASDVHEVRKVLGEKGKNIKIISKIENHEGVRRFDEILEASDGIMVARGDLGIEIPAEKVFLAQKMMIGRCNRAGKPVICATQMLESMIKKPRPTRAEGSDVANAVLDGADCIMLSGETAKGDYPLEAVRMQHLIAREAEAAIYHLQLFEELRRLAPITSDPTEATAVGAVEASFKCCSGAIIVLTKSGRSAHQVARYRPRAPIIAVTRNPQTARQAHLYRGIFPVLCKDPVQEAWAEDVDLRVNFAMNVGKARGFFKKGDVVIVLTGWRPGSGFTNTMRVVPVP

Pyruvate kinase PKM [7] = target: T1, Pyruvate kinase PKM; experiment: Inhibition of human PKM2 assessed as ATP production incubated for 10 mins in presence of beta-mercaptoethanol by Celltiter-glo luminescent analysis
Target sequence in this assay (P14618 whole entry): as above

Pyruvate kinase PKM [8] = target: T1, Pyruvate kinase PKM; experiment: Binding affinity to PKM2 in human PA-1 cells at 10 uM pretreated for 6 hrs followed by pulldown using streptavidin agarose resin by Western blot analysis; format: cell-based
Target sequence in this assay (P14618 2-531 limits assumed): as the sequence (P14618 2-531 limits assumed) above

Pyruvate kinase PKM [9] = target: T1, Pyruvate kinase PKM; experiment: Binding affinity to PKM2 in human SK-OV-3 cells at 10 uM pretreated for 6 hrs followed by pulldown using streptavidin agarose resin by Western blot analysis; format: cell-based
Target sequence in this assay (P14618 2-531 limits assumed): as above

HEY [10] = experiment: Antitumor activity against human HEY cells xenografted in BALB/c nude mouse model assessed as reduction of tumor burden at 50 mg/kg, po qd; format: functional, organism-based
Pyruvate kinase PKM [11] = target: T1, Pyruvate kinase PKM; experiment: Inhibition of PKM2 in human SK-OV-3 cells assessed as decrease in extracellular acidification rate at 5 uM measured for 12 hrs by Seahorse XF96 extracellular flux analyzer; format: cell-based
Target sequence in this assay (P14618 2-531 limits assumed): as above

SK-OV-3 [12] = experiment: Antiproliferative activity against human PKM2 knockdown SK-OV-3 cells assessed as reduction in cell viability incubated after 96 hrs by Cell-TiterGlo assay; format: functional, cell-based
Pyruvate kinase PKM [13] = target: T1, Pyruvate kinase PKM; experiment: Inhibition of PKM2 in human PA-1 cells assessed as reduction in c-MYC phosphorylation level at 3 uM incubated for 6 to 12 hrs by Western blotting analysis; format: cell-based; details: time 6-12 hrs
Pyruvate kinase PKM [14] = target: T1, Pyruvate kinase PKM; experiment: Inhibition of PKM2 in human PA-1 cells assessed as reduction in cyclin D1 phosphorylation level at 3 uM incubated for 6 to 12 hrs by Western blotting analysis; format: cell-based; details: time 6-12 hrs
Pyruvate kinase PKM [15] = target: T1, Pyruvate kinase PKM; experiment: Binding affinity to wild type FLAG-tagged PKM2 in human PA-1 cells measured for 72 hrs; format: cell-based
Target sequence in this assay (P14618 whole entry): as the sequence (P14618 whole entry) above

Pyruvate kinase PKM [16] = target: T1, Pyruvate kinase PKM; experiment: Inhibition of PKM2 in human PA-1 cells assessed as increase in extracellular acidification rate at 1 to 5 uM measured for 12 hrs by Seahorse XF96 extracellular flux analyzer; format: cell-based; details: dose 1-5 µM
HEY [17] = experiment: Antitumor activity against human HEY cells xenografted in BALB/c nude mouse model assessed as reduction average tumor volume by measuring fold change at 50 mg/kg, po qd by caliper analysis; format: functional
SK-OV-3 [18] = experiment: Inhibition of PKM2 knockdown in human SK-OV-3 cells assessed as AMPK phosphorylation level at 3 uM incubated for 6 to 12 hrs by Western blotting analysis; format: functional, cell-based; details: time 6-12 hrs
Pyruvate kinase PKM [19] = target: T1, Pyruvate kinase PKM; experiment: Inhibition of PKM2 in human PA-1 cells assessed as effect on STAT3 phosphorylation level at 3 uM incubated for 6 to 12 hrs by Western blotting analysis; format: cell-based; details: time 6-12 hrs
Pyruvate kinase PKM [20] = target: T1, Pyruvate kinase PKM; experiment: Inhibition of PKM2 in human PA-1 cells assessed as effect on AKT phosphorylation level at 3 uM incubated for 6 to 12 hrs by Western blotting analysis; format: cell-based; details: time 6-12 hrs
Pyruvate kinase PKM [21] = target: T1, Pyruvate kinase PKM; experiment: Inhibition of PKM2 in human PA-1 cells assessed as reduction in LDH level at 5 uM measured after 3 hrs by Western blot analysis; format: cell-based
Pyruvate kinase PKM [22] = target: Pyruvate kinase PKM (Homo sapiens, UniProt P14618, C474A); experiment: Binding affinity to PKM2 C474A mutant in human PA-1 cells measured for 72 hrs; format: cell-based
Pyruvate kinase PKM (Homo sapiens, UniProt P14618, C474A), sequence (P14618 2-531 C474A limits assumed): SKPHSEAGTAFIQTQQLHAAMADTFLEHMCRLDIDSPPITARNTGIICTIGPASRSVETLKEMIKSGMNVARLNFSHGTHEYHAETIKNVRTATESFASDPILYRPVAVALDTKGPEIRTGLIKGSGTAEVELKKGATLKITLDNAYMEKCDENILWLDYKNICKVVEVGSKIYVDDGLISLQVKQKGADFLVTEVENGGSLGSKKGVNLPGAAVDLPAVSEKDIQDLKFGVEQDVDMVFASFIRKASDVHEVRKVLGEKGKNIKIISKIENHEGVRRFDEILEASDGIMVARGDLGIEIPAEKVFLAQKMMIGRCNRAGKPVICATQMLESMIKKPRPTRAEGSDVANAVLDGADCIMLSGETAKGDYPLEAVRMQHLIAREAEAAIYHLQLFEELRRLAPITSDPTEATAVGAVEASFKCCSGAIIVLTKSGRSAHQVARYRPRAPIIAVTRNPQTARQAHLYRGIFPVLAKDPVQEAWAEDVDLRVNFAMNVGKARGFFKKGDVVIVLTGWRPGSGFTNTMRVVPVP

HEY [23] = experiment: Antitumor activity against human HEY cells xenografted in BALB/c nude mouse model assessed as reduction in total tumor weight by measuring fold change at 50 mg/kg, po qd; format: functional
Pyruvate kinase PKM [24] = target: T1, Pyruvate kinase PKM; experiment: Inhibition of PKM2 in human PA-1 cells assessed as effect on ERK1/2 phosphorylation level at 3 uM incubated for 6 to 12 hrs by Western blotting analysis; format: cell-based; details: time 6-12 hrs
SK-OV-3 [25] = experiment: Inhibition of PKM2 knockdown in human SK-OV-3 cells assessed as c-MYC phosphorylation level at 3 uM incubated for 6 to 12 hrs by Western blotting analysis; format: functional, cell-based; details: time 6-12 hrs
Pyruvate kinase PKM [26] = target: T1, Pyruvate kinase PKM; experiment: Inhibition of PKM2 in human PA-1 cells assessed as reduction pyruvate level at 5 uM measured for 12 hrs by LC-MS analysis; format: cell-based
Pyruvate kinase PKM [27] = target: T1, Pyruvate kinase PKM; experiment: Binding affinity to PKM2 in human SK-OV-3 cells assessed as thermal stabilization at 2 uM measured for 6 hrs by cellular thermal shift assay; format: cell-based
Pyruvate kinase PKM [28] = target: Pyruvate kinase PKM (Homo sapiens, UniProt P14618, C474S); experiment: Binding affinity to PKM2 C474S mutant in human PA-1 cells measured for 72 hrs; format: cell-based
Pyruvate kinase PKM (Homo sapiens, UniProt P14618, C474S), sequence (P14618 2-531 C474S limits assumed): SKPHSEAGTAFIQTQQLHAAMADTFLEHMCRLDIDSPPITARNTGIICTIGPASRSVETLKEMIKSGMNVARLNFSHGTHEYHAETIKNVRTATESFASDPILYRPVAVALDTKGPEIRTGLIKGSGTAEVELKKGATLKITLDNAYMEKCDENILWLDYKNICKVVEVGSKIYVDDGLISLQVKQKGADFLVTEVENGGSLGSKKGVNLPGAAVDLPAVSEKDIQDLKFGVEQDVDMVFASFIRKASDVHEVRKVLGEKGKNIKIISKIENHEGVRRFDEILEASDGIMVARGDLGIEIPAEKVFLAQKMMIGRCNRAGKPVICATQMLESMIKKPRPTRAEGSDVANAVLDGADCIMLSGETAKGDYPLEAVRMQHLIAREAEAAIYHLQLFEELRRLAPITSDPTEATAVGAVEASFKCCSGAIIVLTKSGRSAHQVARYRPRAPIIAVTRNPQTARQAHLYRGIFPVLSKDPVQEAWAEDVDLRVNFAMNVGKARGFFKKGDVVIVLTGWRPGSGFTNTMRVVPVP

Pyruvate kinase PKM [29] = target: T1, Pyruvate kinase PKM; experiment: Binding affinity to PKM2 in human PA-1 cells assessed as thermal stabilization at 2 uM measured for 6 hrs by cellular thermal shift assay; format: cell-based
[30] = Toxicity in BALB/c mouse assessed as change in body weight at 50 mg/kg, po qd measured after 2 weeks; format: organism-based; details: in vivo, 336 h
[31] = Toxicity in BALB/c mouse assessed as adverse effects at 50 mg/kg, po qd measured after 2 weeks; format: organism-based; details: in vivo, 336 h
Pyruvate kinase PKM [32] = target: T1, Pyruvate kinase PKM; experiment: Inhibition of PKM2 in human PA-1 cells assessed as increase in ADP/ATP ratio at 5 uM measured for 12 hrs by LC-MS analysis; format: cell-based
PA-1 [33] = experiment: Antiproliferative activity against human PKM2 knockdown PA-1 cells assessed as reduction in cell viability incubated after 96 hrs by Cell-TiterGlo assay; format: functional, cell-based
Pyruvate kinase PKM [34] = target: T1, Pyruvate kinase PKM; experiment: Binding affinity to PKM2 in human HeLa cells assessed as nuclear translocation at 0.5 uM measured for 24 hrs by DAPI staining based immunofluorescence analysis; format: cell-based
Pyruvate kinase PKM [35] = target: T1, Pyruvate kinase PKM; experiment: Inhibition of human PKM1 assessed as ATP production incubated for 10 mins by Celltiter-glo luminescent analysis
Target sequence in this assay (P14618 whole entry): as the sequence (P14618 whole entry) above

## O=C(CCCC[C@H]1SC[C@H]2NC(=O)N[C@H]21)NCCOCCOCCOCCN1CCC(CN(C(=O)[C@@H]2CCN(Cc3ccccc3)C2)c2ccc([As](O)O)cc2)CC1
Pyruvate kinase PKM [1]
  Activity: inactive
Pyruvate kinase PKM [2]
  Activity: Active

## O=C(CCCC[C@H]1SC[C@H]2NC(=O)N[C@H]21)NCCOCCOCCOCCOCC(=O)Nc1ccc([As]2SCCS2)cc1
Pyruvate kinase PKM [3]
  Activity: inactive

## CCN1CCC(CN(C(=O)[C@H]2CCN(Cc3ccccc3)C2)c2ccc([As]3SCCS3)cc2)CC1
SK-OV-3 [4]
  pIC50: 6.89
PA-1 [5]
  pIC50: 7.00
A2780
  pIC50: 6.96

## CN1CC[C@@H](C(=O)N(Cc2ccccc2)c2ccc([As](O)O)cc2)C1
Pyruvate kinase PKM [6]
  pIC50: 6.55
Pyruvate kinase PKM [7]
  pIC50: 5.75

## CCN1CCC(CN(C(=O)[C@@H]2CCN(Cc3ccccc3)C2)c2ccc([As](O)O)cc2)CC1
Pyruvate kinase PKM [6]
  pIC50: 6.91
SK-OV-3 [4]
  pIC50: < 5.00
Pyruvate kinase PKM [8]
  Activity: Active
Pyruvate kinase PKM [9]
  Activity: Active
Pyruvate kinase PKM [7]
  pIC50: 6.60
PA-1 [5]
  pIC50: < 5.00
A2780
  pIC50: < 5.00

## CCN1CCC(CN(C(=O)[C@H]2CCN(Cc3ccccc3)C2)c2ccc([As](O)O)cc2)CC1
Pyruvate kinase PKM [6]
  pIC50: 6.17
Pyruvate kinase PKM [7]
  pIC50: 5.67

## CCN1CCC(CN(C(=O)[C@@H]2CCN(Cc3ccccc3)C2)c2ccc(B(O)O)cc2)CC1
Pyruvate kinase PKM [6]
  pIC50: < 5.00
SK-OV-3 [4]
  pIC50: < 5.00
Pyruvate kinase PKM [7]
  pIC50: < 5.00
PA-1 [5]
  pIC50: < 5.00
A2780
  pIC50: < 5.00

## COc1ccc([As](O)O)cc1NC(=O)COCCOCCOCCOCCNC(=O)CCCC[C@H]1SC[C@H]2NC(=O)N[C@H]21
Pyruvate kinase PKM [6]
  pIC50: 6.00
Pyruvate kinase PKM [7]
  pIC50: 5.89

## O=C(CCCC[C@H]1SC[C@H]2NC(=O)N[C@H]21)NCCOCCOCCOCCOCC(=O)Nc1ccc(B(O)O)cc1
Pyruvate kinase PKM [6]
  pIC50: < 5.00
Pyruvate kinase PKM [7]
  pIC50: < 5.00

## CCN1CCC(CN(C(=O)[C@@H]2CCN(Cc3ccccc3)C2)c2ccc([As]3SCCS3)cc2)CC1
Pyruvate kinase PKM [6]
  pIC50: < 5.00
HEY [10]
  Activity: Active
Pyruvate kinase PKM [11]
  inhibition: Active
SK-OV-3 [4]
  pIC50: < 5.00
SK-OV-3 [12]
  Activity: Active
Pyruvate kinase PKM [13]
  inhibition: Active
Pyruvate kinase PKM [14]
  inhibition: Active
Pyruvate kinase PKM [15]
  pIC50: 7.80
Pyruvate kinase PKM [16]
  inhibition: inactive
Pyruvate kinase PKM [7]
  pIC50: < 5.00
HEY [17]
  fold change (FC): 2
SK-OV-3 [18]
  inhibition: Active
Pyruvate kinase PKM [19]
  inhibition: inactive
PA-1 [5]
  pIC50: 6.80
Pyruvate kinase PKM [20]
  inhibition: inactive
Pyruvate kinase PKM [21]
  inhibition: inactive
Pyruvate kinase PKM [22]
  pIC50: 6.89
HEY [23]
  fold change (FC): >3
Pyruvate kinase PKM [24]
  inhibition: inactive
SK-OV-3 [25]
  inhibition: inactive
Pyruvate kinase PKM [26]
  inhibition: Active
Pyruvate kinase PKM [27]
  Activity: inactive
Pyruvate kinase PKM [28]
  pIC50: 7.03
Pyruvate kinase PKM [29]
  Activity: inactive
[30]
  Activity: Non-Toxic
[31]
  Activity: Non-Toxic
A2780
  pIC50: 6.64
Pyruvate kinase PKM [32]
  inhibition: Active
PA-1 [33]
  Activity: inactive

## O=C(CCCC[C@H]1SC[C@H]2NC(=O)N[C@H]21)NCCOCCOCCOCCN1CCC(CN(C(=O)[C@@H]2CCN(Cc3ccccc3)C2)c2ccc([As]3SCCS3)cc2)CC1
Pyruvate kinase PKM [8]
  Activity: inactive
Pyruvate kinase PKM [9]
  Activity: inactive
Pyruvate kinase PKM [1]
  Activity: inactive

## CC1=CC(C)=[N+]2C1=C(CCCC(=O)N1CCC(CN(C(=O)[C@@H]3CCN(Cc4ccccc4)C3)c3ccc([As]4SCCS4)cc3)CC1)c1c(C)cc(C)n1[B-]2(F)F
Pyruvate kinase PKM [34]
  Activity: Active

## O=C(CCCC[C@H]1SC[C@H]2NC(=O)N[C@H]21)NCCOCCOCCOCCOCC(=O)Nc1ccc([As](O)O)cc1
Pyruvate kinase PKM [6]
  pIC50: 6.64
Pyruvate kinase PKM [7]
  pIC50: 5.99
Pyruvate kinase PKM [3]
  Activity: Active

## CC(C)=CC[C@@H](O)C1=CC(=O)c2c(O)ccc(O)c2C1=O [SHIKONIN]
Pyruvate kinase PKM [6]
  pIC50: 5.59
SK-OV-3 [4]
  pIC50: 5.46
Pyruvate kinase PKM [8]
  Activity: Active
Pyruvate kinase PKM [35]
  pIC50: 5.82
Pyruvate kinase PKM [9]
  Activity: Active
Pyruvate kinase PKM [15]
  pIC50: 6.52
Pyruvate kinase PKM [7]
  pIC50: < 5.00
PA-1 [5]
  pIC50: 6.04
Pyruvate kinase PKM [22]
  pIC50: 6.42
Pyruvate kinase PKM [27]
  Activity: inactive
Pyruvate kinase PKM [28]
  pIC50: 6.49
Pyruvate kinase PKM [29]
  Activity: inactive
A2780
  pIC50: 6.41

## CN1CC[C@@H](C(=O)Nc2ccc([As](O)O)cc2)C1
Pyruvate kinase PKM [6]
  pIC50: 6.86
SK-OV-3 [4]
  pIC50: 6.55
Pyruvate kinase PKM [7]
  pIC50: 6.23
PA-1 [5]
  pIC50: 6.32
A2780
  pIC50: 6.47

## O=C([C@@H]1CCN(Cc2ccccc2)C1)N(Cc1ccccc1)c1ccc([As](O)O)cc1
Pyruvate kinase PKM [6]
  pIC50: 6.49
Pyruvate kinase PKM [7]
  pIC50: 5.83

From ChEMBL document CHEMBL5380786, “Selective Covalent Targeting of Pyruvate Kinase M2 Using Arsenous Warheads” (J Med Chem, 2023)
